Test results as given in patent US8362000B2, “Azetidinyl diamides as monoacylglycerol lipase inhibitors” (Janssen Pharmaceutica NV, priority 2009, dated 2013).
Numbering of substitutions follows the chain as printed. Where two headings read alike, the source gives them in different places.

Tests used:
[1] = biological target: T1, mutant MGL (Homo sapiens, UniProt Q99685, L169S/L176S); assay: MGL ThermoFluor assay - mutant; format: binding
T1 sequence (Q99685 1-303 L169S/L176S): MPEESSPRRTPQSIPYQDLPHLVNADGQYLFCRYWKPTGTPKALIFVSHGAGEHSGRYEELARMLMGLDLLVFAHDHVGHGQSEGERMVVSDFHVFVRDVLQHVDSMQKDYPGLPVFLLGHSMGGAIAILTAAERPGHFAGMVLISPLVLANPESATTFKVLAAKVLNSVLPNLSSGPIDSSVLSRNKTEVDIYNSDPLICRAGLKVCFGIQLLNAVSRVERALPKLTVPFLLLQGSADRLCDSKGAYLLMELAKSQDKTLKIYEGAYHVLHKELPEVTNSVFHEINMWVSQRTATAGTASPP

[2] = biological target: T2, purified wild type MGL (wt-MGLL 6H-11-313) (Homo sapiens, UniProt Q99685)
T2 sequence (Q99685 1-303): T1 sequence (Q99685 1-303 L169S/L176S) with S169L, S176L

[3] = ThermoFluor concentration-response, read-out: MGL mutant ThermoFluor Kd
[4] = ThermoFluor, compound concentration measured by qNMR, read-out: MGL mutant ThermoFluor qKd (using qNMR conc.)
[5] = compound concentration measured by qNMR, read-out: MGL mutant ThermoFluor qKd (using qNMR conc.)
[6] = ThermoFluor thermal stability binding assay, read-out: MGL mutant ThermoFluor Kd

Row | SMILES | Kd [1, 3] [µM] | IC50 [2] [nM] | other results
1 | Cn1cc(C(=O)N2CC(N3CCN(C(=O)c4nccs4)CC3)C2)c2ccccc21 [Cpd 838] | 0.978 | 5110 | 
2 | Cc1c(C(=O)N2CCN(C3CN(C(=O)c4ccc[nH]4)C3)CC2)n(C)c2ccc(Cl)cc12 [Cpd 839] |  | 5140 | Kd [1, 4]: 2.5 µM
3 | COc1cccc2c(C)c(C(=O)N3CC(N4CCN(C(=O)c5cscn5)CC4)C3)[nH]c12 [Cpd 840] | 2 | 5160 | 
4 | O=C(c1ccc2c(c1)ncn2CC(F)(F)F)N1CC(N2CCN(C(=O)c3cscn3)CC2)C1 [Cpd 841] |  | 5260 | Kd [1, 5]: 0.917 µM
5 | O=C(c1ccc2nc(C(F)(F)F)cc(Cl)c2c1)N1CCN(C2CN(C(=O)c3nccs3)C2)CC1 [Cpd 842] | 0.986 | 5530 | 
6 | O=C(c1ccc(N2CCS(=O)(=O)CC2)cc1)N1CC(N2CCN(C(=O)c3nccs3)CC2)C1 [Cpd 843] | 2.13 | 5530 | 
7 | O=C(c1cc2ccc(C(F)(F)F)nc2o1)N1CC(N2CCN(C(=O)c3nccs3)CC2)C1 [Cpd 844] | 62.5 | 6100 | 
8 | COc1ccc2cc(C(=O)N3CC(N4CCN(C(=O)c5nccs5)CC4)C3)c(C)nc2c1 [Cpd 845] |  | 6420 | Kd [1, 4]: 1.62 µM
9 | O=C(c1ccc2nc(C(F)(F)F)cc(Cl)c2c1)N1CC(N2CCN(C(=O)c3cscn3)CC2)C1 [Cpd 848] | 0.833 | 6900 | 
10 | COc1ccc(C(C)(C)C)cc1C(=O)N1CC(N2CCN(C(=O)c3nccs3)CC2)C1 [Cpd 849] | 2.7 | 7010 | 
11 | COc1ccc2c(C)c(C(=O)N3CC(N4CCN(C(=O)c5cscn5)CC4)C3)oc2c1 [Cpd 850] | 1 | 7280 | 
12 | O=C(c1ccc2c(c1)ncn2CCC(F)(F)F)N1CC(N2CCN(C(=O)c3cscn3)CC2)C1 [Cpd 851] |  | 7870 | Kd [1, 5]: 0.883 µM
13 | O=C(c1ccc2[nH]c(C3CCCCC3)nc2c1)N1CCN(C2CN(C(=O)c3cscn3)C2)CC1 [Cpd 853] | 1 | 8340 | 
14 | O=C(c1ccc2[nH]ccc2c1)N1CC(N2CCN(C(=O)c3ccc[nH]3)CC2)C1 [Cpd 856] |  | 8490 | Kd ([1]; ThermoFluor, compound concentration measured by qNMR, read-out: MGL mutant ThermoFluor qKd (μM) (using qNMR conc.)): 0.855 µM
15 | COc1cccc2c(C)c(C(=O)N3CCN(C4CN(C(=O)c5cscn5)C4)CC3)[nH]c12 [Cpd 857] | 3.33 | 8720 | 
16 | Cc1nc2cc(C(=O)N3CC(N4CCN(C(=O)c5cscn5)CC4)C3)ccc2n1CC(F)(F)F [Cpd 858] |  | 8770 | Kd [1, 5]: 0.561 µM
17 | O=C(c1ccc2nc(C(F)(F)F)cc(Cl)c2c1)N1CCN(C2CN(C(=O)c3cscn3)C2)CC1 [Cpd 859] | 1.43 | 8820 | 
18 | O=C(c1cc2ccc(C(F)(F)F)nc2o1)N1CCN(C2CN(C(=O)c3nccs3)C2)CC1 [Cpd 860] | 1.76 | 8820 | 
19 | CC(C)(C)OC(=O)N1CCc2cccc(C(=O)N3CC(N4CCN(C(=O)c5cscn5)CC4)C3)c2C1 [Cpd 861] |  | 9220 | Kd [1, 6]: 2.63 µM
20 | Cc1c(C(=O)N2CC(N3CCN(C(=O)c4cscn4)CC3)C2)oc2ccc(F)cc12 [Cpd 862] | > 21.9 | 9510 | 
21 | O=C(c1cc2nc(C(F)(F)F)ccc2[nH]1)N1CC(N2CCN(C(=O)c3nccs3)CC2)C1 [Cpd 863] |  | 10200 | Kd [1, 4]: 4.37 µM
22 | O=C(c1cc2cc(Br)cnc2o1)N1CC(N2CCN(C(=O)c3nccs3)CC2)C1 [Cpd 864] | 2.41 | 10200 | 
23 | O=C(c1cscn1)N1CCN(C2CN(C(=O)c3cc4ccc(C(F)(F)F)nc4[nH]3)C2)CC1 [Cpd 865] |  | 10300 | Kd [1, 4]: 2.5 µM
24 | Cc1nc2cc(C(=O)N3CC(N4CCN(C(=O)c5cscn5)CC4)C3)ccc2n1CCC(F)(F)F [Cpd 866] |  | 10300 | Kd [1, 5]: 0.824 µM
25 | Cc1c(C(=O)N2CC(N3CCN(C(=O)c4nccs4)CC3)C2)nc2ccc(Br)cn12 [Cpd 868] |  | 12100 | Kd [1, 4]: > 23.1 µM
26 | O=C(c1ccc(Oc2ccccn2)cc1)N1CC(N2CCN(C(=O)C(F)(F)F)CC2)C1 [Cpd 869] |  | 12900 | Kd [1, 5]: 6.2 µM

Row | SMILES | Kd [1, 3] [µM] | IC50 [2] [nM] | other results
27 | O=C(c1ccc(Oc2ccc(Br)cn2)cc1)N1CC(N2CCN(C(=O)C(F)(F)F)CC2)C1 [Cpd 872] |  | 14000 | Kd [1, 5]: 10 µM
28 | O=C(c1cn2cc(Br)ccc2n1)N1CC(N2CCN(C(=O)c3nccs3)CC2)C1 [Cpd 873] |  | 14700 | Kd [1, 4]: 9.2 µM
29 | O=C(c1ccccc1)c1c[nH]c(C(=O)N2CC(N3CCN(C(=O)c4nccs4)CC3)C2)c1 [Cpd 874] |  | 15200 | Kd [1, 4]: 8.46 µM
30 | Cc1c(C(=O)N2CC(N3CCN(C(=O)c4nccs4)CC3)C2)sc2ccc(C(F)(F)F)cc12 [Cpd 897] |  | < 5 | Kd [1, 6]: 0.002 µM
31 | O=C(c1ccc2c(c1)[nH]c(=O)n2C1CCC(F)(F)CC1)N1CC(N2CCN(C(=O)c3nccs3)CC2)C1 [Cpd 932] | 0.008 | 104 | 
32 | O=C(c1ccc2c(c1)[nH]c(=O)n2-c1ccccc1)N1CC(N2CCN(C(=O)c3nccs3)CC2)C1 [Cpd 933, 1-Phenyl-5-({3-[4-(1,3-thiazol-2-ylcarbonyl)piperazin-1-yl]azetidin-1-yl}carbonyl)-1,3-dihydro-2H-benzimidazol-2-one] | 0.034 | 191 | 
33 | O=C(c1ccc2c(c1)[nH]c(=O)n2-c1ccc(F)cc1)N1CC(N2CCN(C(=O)c3nccs3)CC2)C1 [Cpd 934, 1-(4-Fluorophenyl)-5-({3-[4-(1,3-thiazol-2-ylcarbonyl)piperazin-1-yl]azetidin-1-yl}carbonyl)-1,3-dihydro-2H-benzimidazol-2-one] | 0.025 | 174 | 
34 | O=C(c1ccc2c(c1)[nH]c(=O)n2-c1ccc(F)c(F)c1)N1CC(N2CCN(C(=O)c3nccs3)CC2)C1 [Cpd 935] | 0.034 | 100 | 
35 | O=C(c1ccc2c(c1)[nH]c(=O)n2-c1ccc(C(F)(F)F)cc1)N1CC(N2CCN(C(=O)c3nccs3)CC2)C1 [Cpd 936] | 0.012 | 13 | 
36 | O=C(c1ccc2c(c1)[nH]c(=O)n2CC(F)(F)F)N1CC(N2CCN(C(=O)c3nccs3)CC2)C1 [Cpd 937] | 0.096 | 250 | 
37 | O=C(c1ccc2c(c1)[nH]c(=O)n2CCC(F)(F)F)N1CC(N2CCN(C(=O)c3nccs3)CC2)C1 [Cpd 938] | 0.091 | 698 | 
38 | O=C(c1ccc2c(c1)[nH]c(=O)n2-c1ccccc1)N1CC(N2CCN(C(=O)c3cscn3)CC2)C1 [Cpd 939] | 0.302 | 2360 | 
39 | O=C(c1ccc2c(c1)[nH]c(=O)n2-c1ccc(F)cc1)N1CC(N2CCN(C(=O)c3cscn3)CC2)C1 [Cpd 940] | 0.259 | 2240 | 
40 | O=C(c1ccc2c(c1)[nH]c(=O)n2-c1ccc(F)c(F)c1)N1CC(N2CCN(C(=O)c3cscn3)CC2)C1 [Cpd 941] | 0.389 | 1370 | 
41 | O=C(c1ccc2c(c1)[nH]c(=O)n2-c1ccc(C(F)(F)F)cc1)N1CC(N2CCN(C(=O)c3cscn3)CC2)C1 [Cpd 942] | 0.135 | 216 | 
42 | O=C(c1ccc2c(c1)[nH]c(=O)n2CC(F)(F)F)N1CC(N2CCN(C(=O)c3cscn3)CC2)C1 [Cpd 943] | 1.05 | 10400 | 
43 | O=C(c1ccc2c(c1)[nH]c(=O)n2CCC(F)(F)F)N1CC(N2CCN(C(=O)c3cscn3)CC2)C1 [Cpd 944] | 0.802 | 7320 | 
44 | O=C(c1ccc2c(c1)[nH]c(=O)n2C1CCC(F)(F)CC1)N1CC(N2CCN(C(=O)c3cscn3)CC2)C1 [Cpd 945] | 0.083 | 1480 | 
45 | CN(c1ccccc1)S(=O)(=O)c1ccc(C(=O)N2CC(N3CCN(C(=O)c4nccs4)CC3)C2)cc1 [Cpd 946] |  | 1000 | Kd [1, 4]: 1.69 µM
46 | O=C(c1ccc(S(=O)(=O)N2CCCCC2)cc1)N1CC(N2CCN(C(=O)c3nccs3)CC2)C1 [Cpd 947] |  | 1060 | Kd [1, 4]: 0.653 µM
47 | O=C(c1ccc(Cl)nc1)c1c[nH]c2cc(C(=O)N3CC(N4CCN(C(=O)c5nccs5)CC4)C3)ccc12 [Cpd 949] | 0.178 | 163 | 
48 | O=C(c1cccnc1)c1c[nH]c2cc(C(=O)N3CC(N4CCN(C(=O)c5nccs5)CC4)C3)ccc12 [Cpd 950] |  | 1500 | Kd [1, 5]: 0.883 µM
49 | O=C(c1ccc2c(N3CCSCC3)ncnc2c1)N1CC(N2CCN(C(=O)c3nccs3)CC2)C1 [Cpd 951, 7-({3-[4-(1,3-Thiazol-2-ylcarbonyl)piperazin-1-yl]azetidin-1-yl}carbonyl)-4-thiomorpholin-4-ylquinazoline] |  | 540 | Kd [1, 5]: 0.117 µM
50 | CC1(C)c2ccccc2-c2ccc(C(=O)N3CC(N4CCN(C(=O)c5nccs5)CC4)C3)cc21 [Cpd 952] |  | 12 | Kd [1, 4]: 0.019 µM
51 | C[C@@H]1CN(C(=O)c2nccs2)C[C@H](C)N1C1CN(C(=O)c2cc3ccc(C(F)(F)F)cc3s2)C1 [Cpd 953] |  | > 16700 | Kd [1, 4]: > 26.9 µM
